The results in this text go back to patent US20240024313A1, “BIARYL ETHER UREA COMPOUNDS” (Jazz Pharmaceuticals Ireland Limited, priority 2022, published 2024).

Data set [1] has as its target T1, Rat FAAH (Rattus norvegicus, UniProt P97612).
T1 construct: truncated rat FAAH encoding amino acids residues 30-579; 6xHis (N); TEV cleavage site (N); made in house; host or cells: E. coli (pLysS cells)
T1 sequence (P97612 30-579): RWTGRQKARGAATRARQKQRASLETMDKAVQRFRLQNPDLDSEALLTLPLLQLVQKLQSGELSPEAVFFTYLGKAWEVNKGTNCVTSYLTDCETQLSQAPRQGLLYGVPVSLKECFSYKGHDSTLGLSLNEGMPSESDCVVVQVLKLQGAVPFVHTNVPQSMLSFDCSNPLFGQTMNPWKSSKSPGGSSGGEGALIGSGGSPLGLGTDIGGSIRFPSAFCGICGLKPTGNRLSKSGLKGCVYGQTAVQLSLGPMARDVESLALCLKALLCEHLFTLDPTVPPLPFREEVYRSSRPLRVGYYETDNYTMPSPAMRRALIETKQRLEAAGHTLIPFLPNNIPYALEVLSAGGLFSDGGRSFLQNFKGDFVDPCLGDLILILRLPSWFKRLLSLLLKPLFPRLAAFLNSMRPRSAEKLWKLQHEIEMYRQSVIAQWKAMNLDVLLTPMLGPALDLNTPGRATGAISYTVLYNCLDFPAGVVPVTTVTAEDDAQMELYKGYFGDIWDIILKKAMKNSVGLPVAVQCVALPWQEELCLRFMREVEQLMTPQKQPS
Kind of data set: Fluorometric-based Rat FAAH Inhibition Assay. As to conditions: recombinant rat FAAH 20 nM, 1 hour preincubation, 2 μM AMC Arachidonoyl Amide substrate. The data set is classed as biochemical. On the procedure:
Rat FAAH protein was prepared using the following method: Recombinant truncated rat FAAH encoding amino acids residues 30-579 were expressed in E. coli as NH2-terminal 6×HIS-tag and a TEV-cleavage site fusion protein. 6 L pLysS cells were induced to express FAAH. Cells were lysed and centrifuged. The insoluble pellet was resuspended using a Dounce homogenizer in CHAPS-containing buffer and allowed to stir at 4° C. for 1 hour. The resuspended pellet was then centrifuged and rat FAAH in the clarified supernatant was purified by IMAC. The purest protein fractions were pooled, and buffer exchanged into storage buffer by dialysis. The protein concentration was determined by Bradford assay aliquots were flash frozen in liquid nitrogen.
Fluorometric-based Rat FAAH Inhibition Assay was performed using the following method:
(§1) Assays were performed in standard-volume, black, non-binding 384-well plates (Corning #3654). All additions were carried out using the Agilent Bravo Automated Liquid Handler using an 384ST pipetting head.
FAAH reactions contained 20 nM Fatty Acid Amide Hydrolase (rat, recombinant) diluted in an assay buffer containing Tris-EDTA, pH 9.0 at ambient temperature. To obtain 20 nM FAAH per well, a working stock was made at 50 nM by diluting 150 μL of 7.93 μM enzyme to 24 mL of assay buffer, then adding 20 μL to each well. Using the mother plates (prepared at 1000× in DMSO), the Agilent Bravo performed a 1:100 dilution step in assay buffer prior to adding 5 μL to each well for an additional 1:10 dilution.
Plates were incubated at room temperature for 1 hour.
To initialize the reaction a final concentration of 2 μM of AMC Arachidonoyl Amide was added to each well. To obtain this concentration a working stock was made at 4 μM by adding 960 μL of 0.1 mM AMC stock to 24 mL of assay buffer, then 25 μL was added to each well. This stock was made at 4% DMSO for a final assay concentration contribution of 2% DMSO.
(§2) The total reaction volume per well was 50 μL. The reactions were allowed to proceed at 37° C. for 30 minutes with fluorescence monitored using a Cytation 5 Multimode imaging plate reader (BioTek Instruments) using excitation and emission wavelengths of 350/10 nm and 455/10 nm, respectively. Rates (RFU/min) were calculated from the linear portion of the reaction curves using a linear least squares curve fitting method using Gen5 v3.10. Calculated rates were then normalized to DMSO control and presented as percentages. Data were graphed and statistics were performed using GraphPad Prism v9.0.1.
Data for the Fluorometric-based Rat FAAH Inhibition Assay are recited in Table 2 and in FIG. 2.

The target in data set [2] is T2, Human FAAH (Homo sapiens, UniProt O00519).
T2 construct: Recombinant human FAAH encoding full length amino acids were expressed in insect cells; made in house; host or cells: insect cells (baculovirus infection)
T2 sequence (O00519 1-579): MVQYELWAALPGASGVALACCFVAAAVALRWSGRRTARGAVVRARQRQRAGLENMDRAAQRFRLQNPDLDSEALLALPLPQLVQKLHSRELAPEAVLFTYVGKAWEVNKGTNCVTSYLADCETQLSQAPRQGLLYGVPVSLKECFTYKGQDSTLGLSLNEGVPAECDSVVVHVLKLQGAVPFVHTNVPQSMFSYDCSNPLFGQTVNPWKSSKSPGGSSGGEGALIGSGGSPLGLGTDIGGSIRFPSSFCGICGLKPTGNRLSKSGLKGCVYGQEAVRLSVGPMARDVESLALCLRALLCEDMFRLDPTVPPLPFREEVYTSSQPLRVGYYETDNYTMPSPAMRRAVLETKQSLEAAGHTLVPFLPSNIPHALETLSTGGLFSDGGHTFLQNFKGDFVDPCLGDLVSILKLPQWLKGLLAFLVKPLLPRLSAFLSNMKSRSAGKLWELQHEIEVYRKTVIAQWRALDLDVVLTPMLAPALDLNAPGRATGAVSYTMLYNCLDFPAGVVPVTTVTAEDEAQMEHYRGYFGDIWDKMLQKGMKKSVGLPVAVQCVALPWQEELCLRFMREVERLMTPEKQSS
Kind of data set: Fluorometric-based Human FAAH Inhibition Assay. The class given is biochemical. As to conditions: recombinant human FAAH 125 nM, 1 hour preincubation, AMC Arachidonoyl Amide substrate. On the procedure: Human FAAH protein was prepared using the following method: Recombinant human FAAH encoding full length amino acids were expressed in insect cells using baculovirus infection as C-terminal (non-cleavable) 8×His tag fusion protein. Protein was supplied as cell lysate: resuspended 100,000×g pellet at 5.12 mg/ml a buffer containing 20 mM HEPES, pH 7.8, 150 mM NaCl, 1 mM EDTA, 1 mM DTT, 0.5% CHAPS. Specific activity was determined to be 844 U/mg.
Fluorometric-based Human FAAH Inhibition Assay was performed using the following method:
as §1
FAAH reactions contained 125 nM Fatty Acid Amide Hydrolase (human, recombinant) diluted in an assay buffer containing Tris-EDTA, pH 9.0 at ambient temperature. To obtain 125 nM FAAH per well, a working stock was made at 312.5 nM by diluting 94 μL of 79.63 μM enzyme to 24 mL of assay buffer, then adding 20 μL to each well. Using the mother plates (prepared at 1000× in DMSO), the Agilent Bravo performed a 1:100 dilution step in assay buffer prior to adding 5 μL to each well for an additional 1:10 dilution.
Plates were incubated at room-temperature for 1 hour.
To initialize the reaction, a final concentration of […] of AMC Arachidonoyl Amide was added to each well. To obtain this concentration, a working stock was made at […] by adding 960 μL of 0.1 mM AMC stock to 24 mL of assay buffer, then 25 μL was added to each well. This stock was made at 4% DMSO for a final assay concentration contribution of 2% DMSO.
as §2
Data for the Fluorometric-based Human FAAH Inhibition Assay are recited in Table 2 and in FIG. 1.

Data set [3] is described as follows: Phase 1 crossover pharmacokinetic study of Compound of Formula (II) formulations in healthy adult participants. Conditions: human, in vivo, oral, preliminary data; for AUC(0-t) / Cmax: 4 mg. On the procedure: Partial preliminary data on Compound of Formula (II), Compound B, and Compound C) were obtained from a phase 1, single-center, open-label, randomized, 3-period, 2-sequence crossover study to characterize the PK, safety, and tolerability of Compound of Formula (II) formulations (capsule vs tablet) in healthy adult participants. In Periods 1 and 2, participants were randomized to receive 4 mg Compound of Formula (II) capsule formulation or 4 mg Compound of Formula (II) tablet formulation.
Pharmacokinetic parameters for compound of Formula (II), Compound B, and Compound C following single dose of 4 mg of compound of Formula (II) are provided in Table 3. Pharmacokinetic parameters for compound of Formula (II), Compound B, and Compound C following multiple doses of 4 mg of compound of Formula (II) are provided in Table 4.

Setting [4] is: following multiple doses of 4 mg of compound of Formula (II).
The mark [5] stands for this setting: following single dose of 4 mg of compound of Formula (II).

Consider `O=C(Nc1cccnn1)N1CC/C(=C\c2cccc(Oc3ccc(C(F)(F)F)cn3)c2)[C@@H](O)C1` [Compound A-RE, (R,E)-3-hydroxy-N-(pyridazin-3-yl)-4-(3-((5-(trifluoromethyl)pyridin-2-yl)oxy)benzylidene)piperidine-1-carboxamide], for which the IC50 in data set [1] stood at 56.8 ± 16.6 nM; in data set [2], 9.01 ± 0.68 nM.

In the case of `O=C(Nc1cccnn1)N1CC/C(=C/c2cccc(Oc3ccc(C(F)(F)F)cn3)c2)[C@@H](O)C1` [Compound A-RZ, (R,Z)-3-hydroxy-N-(pyridazin-3-yl)-4-(3-((5-(trifluoromethyl)pyridin-2-yl)oxy)benzylidene)piperidine-1-carboxamide], the values for the IC50 in data set [1] and in data set [2] were 170 ± 43 nM and 39.3 ± 2.89 nM, respectively.

Regarding `O=C(Nc1cccnn1)N1CC/C(=C\c2cccc(Oc3ccc(C(F)(F)F)cn3)c2)[C@H](O)C1` [Compound A-SE, (S,E)-3-hydroxy-N-(pyridazin-3-yl)-4-(3-((5-(trifluoromethyl)pyridin-2-yl)oxy)benzylidene)piperidine-1-carboxamide], the IC50 in data set [1] was 3720 ± 542 nM; in data set [2], 439 ± 14.7 nM.

Turning to `O=C(Nc1cccnn1)N1CC/C(=C/c2cccc(Oc3ccc(C(F)(F)F)cn3)c2)[C@H](O)C1` [Compound A-SZ, (S,Z)-3-hydroxy-N-(pyridazin-3-yl)-4-(3-((5-(trifluoromethyl)pyridin-2-yl)oxy)benzylidene)piperidine-1-carboxamide], the IC50 in data set [1] was 3290 ± 583 nM; in data set [2] it was 300 ± 54.9 nM.

Turning to `O=C1CCC(NC(=O)N2CCC(=Cc3cccc(Oc4ccc(C(F)(F)F)cn4)c3)CC2)=NN1` [Compound B, N-(6-oxo-1,4,5,6-tetrahydropyridazin-3-yl)-4-(3-((5-(trifluoromethyl)pyridin-2-yl)oxy)benzylidene)piperidine-1-carboxamide], in data set [3] (setting [4]), the AUC(0-t) was 906 ng·h/mL, the peak level (Cmax) was 9.3 ng/mL, the AUC is 208 ng·h/mL and the Tmax turned out to be 24 h. In data set [3] (setting [4]), this molecule had a half-life of 85 h. Further, in data set [3] (setting [5]), the AUC(0-t) came to 0.6 ng·h/mL and the peak level (Cmax) was 0.3 ng/mL. In addition, the IC50 in data set [1] turned out to be 85.2 ± 9.33 nM. Besides, in data set [2], the IC50 is 12.4 ± 0.89 nM.

Regarding `O=C(O)CCC(=O)NC(=O)N1CCC(=Cc2cccc(Oc3ccc(C(F)(F)F)cn3)c2)CC1` [Compound C, 4-oxo-4-(4-(3-((5-(trifluoromethyl)pyridin-2-yl)oxy)benzylidene)piperidine-1-carboxamido)butanoic acid], in data set [3] (setting [4]), the AUC(0-t) was found to be 281 ng·h/mL, the Cmax turned out to be 3.9 ng/mL, the AUC was 86 ng·h/mL and the Tmax came out at 8 h. In data set [3] (setting [4]), this molecule had a half-life of 40.4 h. Besides, in data set [3] (setting [5]), the AUC(0-t) is 1.1 ng·h/mL and the Cmax is 0.4 ng/mL. In data set [1], the IC50 stood at 39.6 ± 5.84 nM. For the same molecule, the IC50 in data set [2] is 758 ± 11.2 nM.

Take `O=C(Nc1cccnn1)N1CCC(O)(C(O)c2cccc(Oc3ccc(C(F)(F)F)cn3)c2)CC1` (centres unmarked) [Compound D, 4-hydroxy-4-(hydroxy(3-((5-(trifluoromethyl)pyridin-2-yl)oxy)phenyl)methyl)-N-(pyridazin-3-yl)piperidine-1-carboxamide]: the IC50 was 3480 ± 654 nM in data set [1] and 555 ± 84.4 nM in data set [2].

With `FC(F)(F)c1ccc(Oc2cccc(C=C3CCNCC3)c2)nc1` [Compound E, 2-(3-(piperidin-4-ylidenemethyl)phenoxy)-5-(trifluoromethyl)pyridine], in data set [2], the 50% inhibitory concentration (IC50) was determined as 34400 ± 24100 nM.

In the case of `O=C(Nc1cccnn1)N1CCC(=Cc2cccc(Oc3ccc(C(F)(F)F)cn3)c2)CC1` [Compound of Formula (II), reference compound], in data set [3] (setting [4]), the area under the curve AUC(0-t) was found to be 1340 ng·h/mL, the Cmax came out at 46.6 ng/mL, the AUC was 625 ng·h/mL and the Tmax was determined as 2 h. Also, in data set [3] (setting [4]), the half-life was 32.2 h. In data set [3] (setting [5]), this molecule displayed an AUC(0-t) of 138 ng·h/mL and a Cmax of 31.3 ng/mL. Moreover, in data set [1], the IC50 was found to be 10.2 ± 1.17 nM. Also, the IC50 in data set [2] was 3.56 ± 0.67 nM.
